Test results as given in US5053070A, “Pyrimidine derivatives, preparation processes thereof, herbicide containing the same, and herbicidal compositions containing the same along with other active ingredient” (Mitsui Toatsu Chemicals, Incorporated, priority 1988, dated 1991).

How the values were obtained:
Format in all cases: in vivo
barnyardgrass [1] = experiment: Upland soil application test (Test 2); conditions: 30 g ai/a, soil spray before emergence, 30 days later
Procedure, shortened: (§1)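 Damage was graded 30 days after treatment by comparing air-dried plant weight with that of plants in untreated pots. Test compound, given as a diluted wettable powder, had been sprayed on the soil surface one day after sowing, before any weeds emerged.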

common lambsquarters = experiment: Upland soil application test (Test 2); conditions: 30 g ai/a, soil spray before emergence, 30 days later
Procedure, shortened: as §1

foxtail meadow = experiment: Upland soil application test (Test 2); conditions: 30 g ai/a, soil spray before emergence, 30 days later
Procedure, shortened: as §1

green foxtail [2] = experiment: Upland soil application test (Test 2); conditions: 30 g ai/a, soil spray before emergence, 30 days later
Procedure, shortened: as §1

johnsongrass [3] = experiment: Upland soil application test (Test 2); conditions: 30 g ai/a, soil spray before emergence, 30 days later
Procedure, shortened: as §1

large crabgrass = experiment: Upland soil application test (Test 2); conditions: 30 g ai/a, soil spray before emergence, 30 days later
Procedure, shortened: as §1

redroot pigweed [4] = experiment: Upland soil application test (Test 2); conditions: 30 g ai/a, soil spray before emergence, 30 days later
Procedure, shortened: as §1

cotton = experiment: Upland foliar application test (Test 3), crop injury; conditions: 30 g ai/a, foliar spray at 2-3 leaves, 30th day
Procedure, shortened: (§2)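 Steps: sow in upland soil, greenhouse; grow to 2-3 leaf stage; spray leaves with water-diluted emulsion at 5 l per are using a ULV sprayer; assess effects on day 30.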

peanut = experiment: as above; conditions: 30 g ai/a, foliar spray at 2-3 leaves, 30th day
Procedure, shortened: as §2

soybean = experiment: as above; conditions: 30 g ai/a, foliar spray at 2-3 leaves, 30th day
Procedure, shortened: as §2

rice [5] = experiment: Treatment of soil under submerged condition, pre-emergence (Test 4), injury; conditions: 30 g ai/a granule, 30 days later
Procedure, shortened: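 Under submerged conditions, pots carrying weed propagules and transplanted young rice (2–3 leaves) were given a granulated test composition one day after planting, ahead of weed emergence. Plants grew in a greenhouse, with weed emergence and crop injury read 30 days after treatment.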

Sagittaria pygmaea = experiment: Treatment of soil under submerged condition, post-emergence (Test 5); conditions: 30 g ai/a granule, 30 days later
Procedure, shortened: (§3)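 Scoring of weed emergence and rice injury took place 30 days after treatment. Treatment was a granule of the test composition, applied once barnyardgrass had two leaves, to submerged soil holding sown weeds and transplanted 2–3-leaf rice pairs grown under glass.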

barnyardgrass [6] = experiment: as above; conditions: 30 g ai/a granule, post-emergence (barnyardgrass two-leaf stage), 30 days later
Procedure, shortened: as §3

bulrush = experiment: as above; conditions: 30 g ai/a granule, 30 days later
Procedure, shortened: as §3

rice [7] = experiment: Treatment of soil under submerged condition, post-emergence (Test 5), injury; conditions: 30 g ai/a granule, 30 days later
Procedure, shortened: as §3

green foxtail [8] = experiment: Upland foliar application test by mixed formulations (Test 7); conditions: applied alone, 0.3 kg/ha, 30th day; for pest or weed control at 300 g/ha: Setaria viridis, 720 h, read-out: Herbicidal effects (%) Green foxtail Ea
Procedure, shortened: (§4)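 Foliar spray of two-compound mixed emulsion, diluted with water, at 5 l per are via ULV sprayer onto weeds at 2–3 leaf stage in upland soil pots, greenhouse. Effect observed 30 days after spraying. Measured mixture activity (Ea) compared with Colby expected value (Ec) derived from single-ingredient growth inhibition rates.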

johnsongrass [9] = experiment: as above; conditions: Sorghum halepense, 720 h, applied alone, 0.3 kg/ha, 30th day, read-out: Herbicidal effects (%) Johnsongrass Ea
Procedure, shortened: as §4

morningglories = experiment: as above; conditions: Ipomoea, 720 h, applied alone, 0.3 kg/ha, 30th day, read-out: Herbicidal effects (%) Morningglory Ea
Procedure, shortened: as §4

redroot pigweed [10] = experiment: as above; conditions: Amaranthus retroflexus, 720 h, applied alone, 0.3 kg/ha, 30th day, read-out: Herbicidal effects (%) Redrood pigweed Ea
Procedure, shortened: as §4

SMILES | Herbicidal effects Barnyardgrass (barnyardgrass [1]) | Herbicidal effects Common lambsquarters (common lambsquarters) | Herbicidal effects Foxtail meadow (foxtail meadow) | Herbicidal effects Green foxtail (green foxtail [2]) | Herbicidal effects Johnsongrass (johnsongrass [3]) | Herbicidal effects Large crabgrass (large crabgrass) | Herbicidal effects Redroot pigweed (redroot pigweed [4]) | Injury Cotton (cotton) | Injury Peanut (peanut) | Injury Soybean (soybean) | Injury Rice (rice [5]) | Herbicidal effects Sagittaria Pygmaea (Sagittaria pygmaea) | Herbicidal effects Barnyardgrass (barnyardgrass [6]) | Herbicidal effects Bulrush (bulrush) | Injury Rice (rice [7]) | pest or weed control at 300 g/ha (green foxtail [8]) | pest or weed control at 300 g/ha (johnsongrass [9]) | pest or weed control at 300 g/ha (morningglories) | pest or weed control at 300 g/ha (redroot pigweed [10]) | Herbicidal effects (%) Green foxtail Ea (green foxtail [8])
COc1cc(OC)nc(Oc2ccccc2C=NOCC=Cc2ccccc2Cl)n1 [Compound No. 27] | 4 (6-10 (Severe damages)) | 4 (6-10 (Severe damages)) | 5 (0-5 (Death)) | 5 (0-5 (Death)) | 5 (0-5 (Death)) | 5 (0-5 (Death)) | 5 (0-5 (Death)) | 0 (91-100 (No damages)) | 0 (91-100 (No damages)) | 0 (91-100 (No damages)) | 0 (91-100 (No damages)) | 4 (6-10 (Severe damages)) | 5 (0-5 (Death)) | 4 (6-10 (Severe damages)) | 0 (91-100 (No damages)) | 30% | 30% | 10% | 50% | 
COc1cc(OC)nc(Oc2ccccc2C=NOCC=Cc2cccc(C)c2)n1 [Compound No. 34, 0-(3-methylcinnamyl)-2-(4,6-dimethoxy-2-pyrimidinyloxy)benzaldoxime] | 5 (0-5 (Death)) | 4 (6-10 (Severe damages)) | 5 (0-5 (Death)) | 5 (0-5 (Death)) | 5 (0-5 (Death)) | 4 (6-10 (Severe damages)) | 4 (6-10 (Severe damages)) | 0 (91-100 (No damages)) | 0 (91-100 (No damages)) | 0 (91-100 (No damages)) | 0 (91-100 (No damages)) | 3 (11-40 (Medium damages)) | 5 (0-5 (Death)) | 4 (6-10 (Severe damages)) | 1 (71-90 (Slight damages)) | 30% | 30% | 0% | 30% | 
COc1cc(OC)nc(Oc2ccccc2C=NOCC#Cc2ccccc2)n1 [compound 42] | 5 (0-5 (Death)) | 4 (6-10 (Severe damages)) | 5 (0-5 (Death)) | 5 (0-5 (Death)) | 5 (0-5 (Death)) | 4 (6-10 (Severe damages)) | 3 (11-40 (Medium damages)) | 0 (91-100 (No damages)) | 0 (91-100 (No damages)) | 0 (91-100 (No damages)) | 0 (91-100 (No damages)) | 5 (0-5 (Death)) | 5 (0-5 (Death)) | 4 (6-10 (Severe damages)) | 0 (91-100 (No damages)) | 50% | 50% | 10% | 50% | 
COc1cc(OC)nc(Oc2ccccc2C=NOCC=C(C)C)n1 [Compound No. 7] | 5 (0-5 (Death)) | 4 (6-10 (Severe damages)) | 5 (0-5 (Death)) | 5 (0-5 (Death)) | 5 (0-5 (Death)) | 5 (0-5 (Death)) | 4 (6-10 (Severe damages)) | 0 (91-100 (No damages)) | 0 (91-100 (No damages)) | 0 (91-100 (No damages)) | 1 (71-90 (Slight damages)) | 3 (11-40 (Medium damages)) | 5 (0-5 (Death)) | 5 (0-5 (Death)) | 0 (91-100 (No damages)) | 50% | 40% | 10% | 30% | 
COc1cc(OC)nc(Oc2ccccc2C=NOCC=Cc2ccc(Cl)cc2Cl)n1 [compound 30] | 5 (0-5 (Death)) | 4 (6-10 (Severe damages)) | 5 (0-5 (Death)) | 5 (0-5 (Death)) | 5 (0-5 (Death)) | 5 (0-5 (Death)) | 5 (0-5 (Death)) | 0 (91-100 (No damages)) | 0 (91-100 (No damages)) | 0 (91-100 (No damages)) | 0 (91-100 (No damages)) | 4 (6-10 (Severe damages)) | 5 (0-5 (Death)) | 4 (6-10 (Severe damages)) | 0 (91-100 (No damages)) | 20% | 10% | 0% | 40% | 20%
COc1cccc(C=CCON=Cc2ccccc2Oc2nc(OC)cc(OC)n2)c1 [compound 38] | 5 (0-5 (Death)) | 4 (6-10 (Severe damages)) | 4 (6-10 (Severe damages)) | 5 (0-5 (Death)) | 5 (0-5 (Death)) | 5 (0-5 (Death)) | 4 (6-10 (Severe damages)) | 0 (91-100 (No damages)) | 0 (91-100 (No damages)) | 0 (91-100 (No damages)) | 0 (91-100 (No damages)) | 4 (6-10 (Severe damages)) | 5 (0-5 (Death)) | 5 (0-5 (Death)) | 1 (71-90 (Slight damages)) | 40% | 40% | 10% | 50% | 
